Reference: US8993585B2, “Cyclic amine substituted pyrimidinediamines as PKC inhibitors” (Rigel Pharmaceuticals, Inc., priority 2007, dated 2015)

Tested on: Human primary T cells
Test: IL-2 ELISA, Human Primary T Cell, Anti-CD3+CD28+ (Example 3)
Format: cell-based
Settings: anti-CD3+CD28 stimulation
How it was run: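 Human primary T cells, 100,000 per well, were pre-incubated with compound in Yssel's medium for 1 h at 37 °C. The counter-assay used 0.5 ng/ml PMA with 0.1 uM ionomycin final.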

SMILES | IC50 (Homo sapiens, T-cell, 24 h) [µM] | IC50 (24 hours) [µM] | also measured
COC(=O)C(C)N1C(C)(C)CC(Nc2nc(Nc3ccc(C)c(C#N)c3)ncc2F)CC1(C)C (stereo not shown) [Compound I-296] | 1.04 |  | 
COC(=O)/C=C/N1C(C)(C)CC(Nc2nc(Nc3ccc(OC)c(OC)c3)ncc2F)CC1(C)C [Compound I-297] |  | 24.7 | 
COC(=O)C=CN1C(C)(C)CC(Nc2nc(Nc3cc(OC)cc(OC)c3)ncc2F)CC1(C)C [Compound I-298] |  | 1.08 | 
COC(=O)/C=C/N1C(C)(C)CC(Nc2nc(Nc3ccc(OC)c(C(F)(F)F)c3)ncc2F)CC1(C)C [Compound I-301] |  | 0.951 | 
COc1cc(Nc2ncc(F)c(NC3CC(C)(C)N(CCC(=O)O)C(C)(C)C3)n2)cc(OC)c1 [Compound I-302] | 25.1 |  | 
COc1ccc(Nc2ncc(F)c(NC3CC(C)(C)N(CCC(=O)O)C(C)(C)C3)n2)cc1Cl [Compound I-303] | 17.7 |  | 
CC1(C)CC(Nc2nc(Nc3cc(Cl)cc(Cl)c3)ncc2F)CC(C)(C)N1CCC(=O)O [Compound I-304] | 9.51 |  | 
COc1ccc(Nc2ncc(F)c(NC3CC(C)(C)N(CCC(=O)O)C(C)(C)C3)n2)cc1C(F)(F)F [Compound I-305] |  | 17.9 | 
Cc1ccc(Nc2ncc(F)c(NC3CC(C)(C)N(CCC(=O)O)C(C)(C)C3)n2)cc1C#N [Compound I-306] | 10.5 |  | 
COc1cc(Nc2ncc(F)c(NC3CC(C)(C)N(C)C(C)(C)C3)n2)cc(OC)c1 [Compound I-307] |  | 0.327 | 
COc1cc(Nc2ncc(F)c(N(Cc3ccccc3)C3CC(C)(C)N(C)C(C)(C)C3)n2)cc(OC)c1 [Compound I-308] | 0.809 |  | 
COc1ccc(Nc2ncc(F)c(N(Cc3ccccc3)C3CC(C)(C)N(C)C(C)(C)C3)n2)cc1OC(F)F [Compound I-309] | 0.642 |  | 
CN1C(C)(C)CC(N(Cc2ccccc2)c2nc(Nc3ccc(N4CCN(S(C)(=O)=O)CC4)c(C(F)(F)F)c3)ncc2F)CC1(C)C [Compound I-310] | 1.41 |  | 
CN1CCN(c2ccc(Nc3ncc(F)c(N(Cc4ccccc4)C4CC(C)(C)N(C)C(C)(C)C4)n3)cc2C(F)(F)F)CC1 [Compound I-311] | 0.804 |  | 
CN1C(C)(C)CC(N(Cc2ccccc2)c2nc(Nc3ccc(N4CCOCC4)c(C(F)(F)F)c3)ncc2F)CC1(C)C [Compound I-312] | 1.69 |  | 
Cc1ccc(Nc2ncc(F)c(N(Cc3ccccc3)C3CC(C)(C)N(C)C(C)(C)C3)n2)cc1C#N [Compound I-313] | 0.793 |  | 
COc1cc(Nc2ncc(F)c(N(Cc3ccc4ccccc4c3)C3CC(C)(C)N(C)C(C)(C)C3)n2)cc(OC)c1 [Compound I-314] | 2.57 |  | 
Cc1ccc(Nc2ncc(F)c(N(Cc3ccc4ccccc4c3)C3CC(C)(C)N(C)C(C)(C)C3)n2)cc1C#N [Compound I-315] | 3.39 |  | 
COc1ccc(Nc2ncc(F)c(N(Cc3ccc4ccccc4c3)C3CC(C)(C)N(C)C(C)(C)C3)n2)cc1OC(F)F [Compound I-316] | 3.44 |  | 
COc1cc(Nc2ncc(F)c(N(Cc3ccc(-c4ccccc4)cc3)C3CC(C)(C)N(C)C(C)(C)C3)n2)cc(OC)c1 [Compound I-317] | 2.42 |  | 
Cc1ccc(Nc2ncc(F)c(N(Cc3ccc(-c4ccccc4)cc3)C3CC(C)(C)N(C)C(C)(C)C3)n2)cc1C#N [Compound I-318] | 2.51 |  | 
COc1ccc(Nc2ncc(F)c(N(Cc3ccc(-c4ccccc4)cc3)C3CC(C)(C)N(C)C(C)(C)C3)n2)cc1OC(F)F [Compound I-319] | 2.85 |  | 
Cc1ccc(Nc2ncc(F)c(N(Cc3ccc4ccccc4n3)C3CC(C)(C)N(C)C(C)(C)C3)n2)cc1C#N [Compound I-320] | 6.14 |  | 
COc1ccc(Nc2ncc(F)c(N(Cc3ccc4ccccc4n3)C3CC(C)(C)N(C)C(C)(C)C3)n2)cc1OC(F)F [Compound I-321] | 5.95 |  | 

SMILES | IC50 (Homo sapiens, T-cell, 24 h) [µM] | IC50 (24 hours) [µM] | also measured
COc1cc(Nc2ncc(F)c(N(Cc3ccc4ccccc4n3)C3CC(C)(C)N(C)C(C)(C)C3)n2)cc(OC)c1 [Compound I-322] | 5.79 |  | 
COc1cc(Nc2ncc(F)c(N(Cc3cc4c(cc3Br)OCO4)C3CC(C)(C)N(C)C(C)(C)C3)n2)cc(OC)c1 [Compound I-323] | 4.71 |  | 
COc1cc(Nc2ncc(F)c(N(Cc3ccc(-c4ccccc4C#N)cc3)C3CC(C)(C)N(C)C(C)(C)C3)n2)cc(OC)c1 [Compound I-325] | 3.46 |  | 
Cc1ccc(Nc2ncc(F)c(N(Cc3ccc(-c4ccccc4C#N)cc3)C3CC(C)(C)N(C)C(C)(C)C3)n2)cc1C#N [Compound I-326] | 3.08 |  | 
CN1C(C)(C)CC(Nc2nc(Nc3cccc(O)c3)ncc2F)CC1(C)C [Compound I-327] |  | 5.08 | 
CN1C(C)(C)CC(Nc2nc(Nc3ccc(N4CCOCC4)c(C(F)(F)F)c3)ncc2C(F)(F)F)CC1(C)C [Compound I-330] |  | 1.12 | 
CN1C(C)(C)CC(Nc2nc(Nc3ccc(N4CCSCC4)c(C(F)(F)F)c3)ncc2F)CC1(C)C [Compound I-331] |  | 0.806 | 
CN1C(C)(C)CC(Nc2nc(Nc3ccc(F)c(Cl)c3)ncc2F)CC1(C)C [Compound I-333] |  | 0.586 | 
CN1C(C)(C)CC(Nc2nc(Nc3ccc(OC(F)(F)F)c(Cl)c3)ncc2F)CC1(C)C [Compound I-334] |  | 1.01 | 
CN1C(C)(C)CC(Nc2nc(Nc3ccc(N4CCOCC4)c(Cl)c3)ncc2F)CC1(C)C [Compound I-335] |  | 0.563 | 
CN1C(C)(C)CC(Nc2nc(Nc3ccc(Cl)c(Cl)c3)ncc2F)CC1(C)C [Compound I-336] |  | 2.04 | 
CN1C(C)(C)CC(Nc2nc(Nc3ccc(Oc4ncccn4)c(Cl)c3)ncc2F)CC1(C)C [Compound I-338] |  | 0.36 | 
COc1ccc(Nc2ncc(F)c(NC3CC(C)(C)N(C)C(C)(C)C3)n2)cc1OC(F)(F)F [Compound I-343] |  | 0.315 | 
COc1ccc(Nc2ncc(F)c(NC3CC(C)(C)N(C)C(C)(C)C3)n2)cn1 [Compound I-345] | 5.32 |  | 
CC(C)Oc1ccc(Nc2ncc(F)c(NC3CC(C)(C)N(C)C(C)(C)C3)n2)cc1Cl [Compound I-346] |  | 0.248 | 
CN1C(C)(C)CC(Nc2nc(Nc3cc(F)c(F)c(F)c3)ncc2F)CC1(C)C [Compound I-347] |  | 0.617 | 
COc1cc(Nc2ncc(F)c(NC3CC(C)(C)N(C)C(C)(C)C3)n2)ccc1-n1cccc1 [Compound I-349] |  | 1.04 | 
CN1C(C)(C)CC(Nc2nc(Nc3ccc(NC(=O)c4ccco4)c(Cl)c3)ncc2Cl)CC1(C)C [Compound I-351] |  | 0.198 | 
COc1cc(Nc2ncc(Cl)c(NC3CC(C)(C)N(C)C(C)(C)C3)n2)ccc1NC(=O)c1ccco1 [Compound I-352] |  | 1.07 | 
COc1cc(Nc2ncc(F)c(NC3CC(C)(C)N(C)C(C)(C)C3)n2)ccc1NC(=O)c1ccco1 [Compound I-353] |  | 1.54 | 
CN1C(C)(C)CC(Nc2nc(Nc3cc(F)cc(F)c3)ncc2F)CC1(C)C [Compound I-354] |  | 0.595 | 
CN1C(C)(C)CC(Nc2nc(Nc3ccc(NC(=O)c4ccco4)c(C(F)(F)F)c3)ncc2F)CC1(C)C [Compound I-355] |  | 0.893 | 
COc1cc(Nc2ncc(F)c(NC3CC(C)(C)N(C)C(C)(C)C3)n2)cc(-n2nnnc2C)c1 [Compound I-358] | 0.0295 |  | 
COc1ccc(Nc2ncc(F)c(NC3CC(C)(C)N(C)C(C)(C)C3)n2)cc1OC(F)F [Compound I-359] |  |  | IC50 (24 hours, citrate salt): 0.118 µM

SMILES | IC50 (Homo sapiens, T-cell, 24 h) [µM] | IC50 (24 hours) [µM] | also measured
COc1ccc(Nc2ncc(F)c(NC3CC(C)(C)N(C)C(C)(C)C3)n2)cc1OC(C)C [Compound I-360] |  | 2.2 | 
COc1cc(Nc2ncc(F)c(NC3CC(C)(C)N(C)C(C)(C)C3)n2)ccc1-n1nc(C)cc1C [Compound I-361] |  | 4.66 | 
CN1C(C)(C)CC(Nc2nc(Nc3ccc(C(=O)NCCc4ccccn4)c(Cl)c3)ncc2F)CC1(C)C [Compound I-362] |  | 0.667 | 
CN1C(C)(C)CC(Nc2nc(Nc3ccc(C(=O)NCc4cccnc4)cc3)ncc2F)CC1(C)C [Compound I-367] |  | 3.7 | 
CN1C(C)(C)CC(Nc2nc(Nc3ccc(OCCN4CCOCC4)c(Cl)c3)ncc2F)CC1(C)C [Compound I-368] |  | 0.297 | 
COc1ccc(Nc2ncc(F)c(NC3CC(C)(C)N(C)C(C)(C)C3)n2)cc1-c1cnco1 [Compound I-369] |  | 0.624 | 
COc1cc(Nc2ncc(C(F)(F)F)c(NC3CC(C)(C)N(C)C(C)(C)C3)n2)cc(-n2nnnc2C)c1 [Compound I-370] |  | 0.0932 | 
COc1cc(Nc2ncc(F)c(NC3CC(C)(C)NC(C)(C)C3)n2)cc(OC)c1 [Compound I-371] |  | 0.55 | 
COc1cc(Nc2ncc(F)c(NC3CC(C)(C)NC(C)(C)C3)n2)cc(-n2nnnc2C)c1 [Compound I-372] |  | 0.0921 | 
CN1C(C)(C)CC(Nc2nc(Nc3ccc(OCCN4CCOCC4)c(Cl)c3)ncc2C#N)CC1(C)C [Compound I-373] |  | 0.542 | 
COc1cc(C)c(Nc2ncc(F)c(NC3CC(C)(C)NC(C)(C)C3)n2)cc1OC [Compound I-379] |  | 34.5 | 
COc1cc(C)c(Nc2ncc(F)c(NC3CC(C)(C)N(C)C(C)(C)C3)n2)cc1OC [Compound I-380] |  | 19.5 | 
CC1(C)CC(Nc2nc(Nc3cc(O)cc(O)c3)ncc2F)CC(C)(C)N1 [Compound I-383] |  | 30 | 
CN1C(C)(C)CC(Nc2nc(Nc3cc(O)cc(O)c3)ncc2F)CC1(C)C [Compound I-384] |  | 9.51 | 
COCCOc1cc(Nc2ncc(F)c(NC3CC(C)(C)N(C)C(C)(C)C3)n2)cc(OCCOC)c1 [Compound I-385] |  | 1.18 | 
COc1cc(Cl)c(Nc2ncc(F)c(NC3CC(C)(C)N(C)C(C)(C)C3)n2)cc1OC [Compound I-386] |  | 3.21 | 
COc1cc(Nc2ncc(C(N)=O)c(NC3CC(C)(C)NC(C)(C)C3)n2)cc(-n2nnnc2C)c1 [Compound I-387] |  | 3.47 | 
COc1cc(Nc2ncc(F)c(NC3CC(C)(C)NC(C)(C)C3)n2)cc(-n2cnnn2)c1 [Compound I-388] |  | 0.11 | 
COc1cc(Nc2ncc(C(N)=O)c(NC3CC(C)(C)NC(C)(C)C3)n2)cc(-n2cnnn2)c1 [Compound I-389] |  | 5.42 | 
COc1cc(Nc2ncc(C(N)=O)c(NC3CC(C)(C)N(C)C(C)(C)C3)n2)cc(-n2cnnn2)c1 [Compound I-390] |  | 0.68 | 
CC1(C)CC(Nc2nc(Nc3cccc(-n4cnnn4)c3)ncc2F)CC(C)(C)N1 [Compound I-391] |  | 0.22 | 
CC1(C)CC(Nc2nc(Nc3cccc(-n4cnnn4)c3)ncc2C(N)=O)CC(C)(C)N1 [Compound I-392] |  | 4.46 | 
